Experimental data taken from ChEMBL document CHEMBL5236575, “Drug Hunting at the Nexus of Medicinal Chemistry and Chemical Biology and the Discovery of Novel Therapeutic Modalities” (J Med Chem, 2022).

What was measured:
[1] = target: Survival motor neuron protein (Homo sapiens) (UniProt Q16637); test: Modulation of human SMN2 level in NSC34 cells assessed as fold change by ELISA; assay type: cell-based
[2] = target: T1, von Hippel-Lindau disease tumor suppressor (Homo sapiens, UniProt P40337); test: Binding affinity to VHL E3 ligase (unknown origin) assessed as dissociation constant by isothermal titration calorimetry assay
T1 sequence (P40337 whole entry): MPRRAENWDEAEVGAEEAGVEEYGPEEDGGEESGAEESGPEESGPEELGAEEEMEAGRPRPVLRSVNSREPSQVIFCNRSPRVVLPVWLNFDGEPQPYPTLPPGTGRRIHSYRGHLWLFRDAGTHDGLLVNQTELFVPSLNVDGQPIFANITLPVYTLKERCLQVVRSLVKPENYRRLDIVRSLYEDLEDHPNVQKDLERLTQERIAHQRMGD

[3] = target: T1, von Hippel-Lindau disease tumor suppressor; test: Binding affinity to VHL E3 ligase (unknown origin) by fluorescence polarization (FP) assay

Chain of Survival motor neuron protein (Homo sapiens) (Q16637 whole entry): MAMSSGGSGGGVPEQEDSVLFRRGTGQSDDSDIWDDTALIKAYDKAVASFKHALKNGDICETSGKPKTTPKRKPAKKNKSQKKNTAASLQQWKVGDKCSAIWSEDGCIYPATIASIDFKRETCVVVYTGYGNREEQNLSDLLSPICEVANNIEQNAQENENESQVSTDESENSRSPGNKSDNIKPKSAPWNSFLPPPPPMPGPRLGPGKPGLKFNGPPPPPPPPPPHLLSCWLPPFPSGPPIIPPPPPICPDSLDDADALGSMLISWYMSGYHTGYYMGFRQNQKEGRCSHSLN

For `Cc1cn2nc(-c3cc(=O)n4cc(N5CCN(C)CC5)ccc4n3)cc2c(C)n1`, the EC1.5 ([1]; NSC-34, filed as modulator) was 170 nM.
In the case of `CCc1nc(C)cn2nc(-c3cc(=O)n4cc(N5CCN(CC)CC5)ccc4n3)cc12`, the EC1.5 ([1]; NSC-34, filed as modulator) is reported as 23 nM.
Compound `Oc1cc(-n2cccn2)ccc1-c1ccc(OC2CCNCC2(F)F)nn1` (centres undefined) has a fold change (FC) ([1]; NSC-34, filed as modulator) of 1.2.
`CCCCC(=O)NCCC(=O)N1CCN(c2ccc3nc(-c4cc(F)c5nc(C)cn5c4)cc(=O)n3c2)CC1` gave an EC1.5 ([1]; NSC-34) greater than 1000 nM.
In the case of `Cc1cn2nc(-c3cc(=O)n4cc(N5CCNC6(CC6)C5)ccc4n3)cc(C)c2n1`, the EC1.5 ([1]; NSC-34, filed as modulator) is reported as 4 nM.
Work on `CN(c1ccc(-c2ccc(-c3cn[nH]c3)cc2O)nn1)C1CC(C)(C)NC(C)(C)C1` yielded a fold change (FC) ([1]; NSC-34, filed as modulator) of 3.1.
Compound `CN(c1ccc(-c2ccc(-n3cccn3)cc2O)nn1)C1CC(C)(C)NC(C)(C)C1` has a fold change (FC) ([1]; NSC-34, filed as modulator) of 3.1.
`Cc1cn2cc(-c3cc(=O)n4cc(N5CCN(C)CC5)ccc4n3)cc(F)c2n1` was tested, and the EC1.5 ([1]; NSC-34, filed as modulator) was 15 nM.
`CCN1CCN(c2ccc3nc(-c4cc5c(C)nc(C)cn5n4)cc(=O)n3c2)CC1` showed an EC1.5 ([1]; NSC-34, filed as modulator) of 30 nM.
In the case of `C=C(CCNC(=O)CCCC)N1CCN(c2ccc3nc(-c4cc(F)c5nc(C)cn5c4)cc(=O)n3c2)CC1`, the EC1.5 ([1]; NSC-34, filed as modulator) is reported as 43 nM.
In the case of `CC1(C)CC(Oc2ccc(-c3ccc(-c4cn[nH]c4)cc3O)nn2)CC(C)(C)N1`, the fold change (FC) ([1]; NSC-34, filed as modulator) is reported as 3.6.
Work on `CC1(C)CC(Oc2ccc(-c3ccc(-n4cccn4)cc3O)nn2)CC(C)(C)N1` yielded a fold change (FC) ([1]; NSC-34, filed as modulator) of 3.3.
Compound `COC(=O)c1ccc(CNC(=O)[C@@H]2C[C@@H](O)CN2C(=O)CC(C)(C)C)cc1` has a Kd [2] of 45.5 µM and an IC50 [3] of 53.2 µM.
